# Results taken from patent US8735150B2, “Methods for detecting embryonic stem cells, induced pluripotent stem cells, or cells undergoing reprogramming to produce induced pluripotent stem cells” (New York University, priority 2010, dated 2014).
# What was measured:
# mESC = experiment: FACS isolation of mESC from a MEF and mESC mixture stained with CDy1; Nanog RT-PCR and colony forming assay; assay type: cell-based, mouse
# Procedure: MEFs and mESCs were cultured in 60 mm culture dishes for 24 hours in the presence of 500 nM of hit compounds including CDy1. The cells were harvested by trypsin treatment, washed with PBS, and resuspended in PBS. The fluorescence intensity of the cells was measured with flow cytometry (BD™ LSR II) with PE-Texas Red filter (excitation at 488 nm, emission at 615 nm). The dot plot images for each cell type were overlaid using FlowJo7 (Tree Star Inc., Ashland, Oreg.). For FACS, MEF and mESC were cultured in the same dish and the sample was prepared as described above for flow cytometry. The cells were gated into SSC^low CDy1^bright and SSC^high CDy1^dim regions and were collected using a FACS machine (BD FACS Aria™, BD Biosciences, Franklin Lakes, N.J.).
# Total RNA was isolated from cells using RNeasy Mini Kit (QIAGEN Inc.) according to the manufacturer's instruction. cDNA was synthesized from 1 μg of total RNA using REVERTAID™ H Minus First strand cDNA Synthesis kit (Fermentas, Glen Burnie, Md.) and amplified by PCR using GOTAQ® Green Master Mix (Promega, Fitchburg, Wis.). The PCR conditions were as follows: 30 seconds denaturation at 95° C., 30 seconds annealing at 60° C., and a final 30 seconds of extension at 72° C. The sequences of primers used in this study are: Nanog (GenBank Accession No. NM_028016.1): sense 5′-[…]-3′ (SEQ ID NO:1), antisense 5′-[…]-3′ (SEQ ID NO:2); GAPDH (GenBank Accession No. XM—001473443.1): sense 5′-[…]-3′ (SEQ ID NO:3), antisense 5′-[…]-3′ (SEQ ID NO:4). The PCR products obtained after 25 cycles were resolved on 1% agarose gels, visualized by ethidium bromide staining, and the images were taken using a Gel Logic 200 Imaging System (Kodak, Rochester, N.Y.).
# To evaluate the capability of CDy1 to isolate ESC from a mixed cell population, a MEF and mESC mixture was stained with CDy1, the mixed cells were gated into SSC^low CDy1^bright and SSC^high CDy1^dim regions, and 40,000 cells were collected by FACS from each gate for a stem cell marker Nanog gene expression analysis and colony forming assay. […]
# human ESC (hESC) (BG01V) = experiment: Comparison of CDy1 and ALDEFLUOR staining in hESC; assay type: cell-based; conditions: fluorescence microscopy
# Procedure: In this experiment, the cells cultured on 6-well plates were incubated with 1 μM ALDEFLUOR® for one hour at 37° C. and then washed with PBS three times before ALDEFLUOR® assay buffer was added. Bright field (“B.F”) and fluorescence (FITC filter for ALDEFLUOR® and TRITC filter for CDy1) images were taken using a Nikon ECLIPSE Ti fluorescence microscope (Scale bars, 100 μm).
# BG01V cells cultured on MEF were selectively stained by CDy1. The expression of hESC marker TRA-1-60 in the CDy1-stained BG01V cells was detected by immunofluorescence staining (Scale bar, 100 μm).
# Among the few fluorescent dyes used for stem cell staining (Zijlmans et al., “Modification of Rhodamine Staining Allows Identification of Hematopoietic Stem Cells with Preferential Short-term or Long-term Bone Marrow-Repopulating Ability,” Proc. Natl. Acad. Sci. USA, 92:8901-8905 (1995), which is hereby incorporated by reference in its entirety) is ALDEFLUOR® which employs a fluorescent substrate BODIPY-aminoacetaldehyde for aldehyde dehydrogenase (ALDH)1A1 (Storms et al., “Isolation of Primitive Human Hematopoietic Progenitors on the Basis of Aldehyde Dehydrogenase Activity,” Proc. Natl. Acad. Sci. USA, 96: 9118-9123 (1999), which is hereby incorporated by reference in its entirety). […]
# [1] = 40,000 cells collected by FACS, three days culture
smiles,measurement,setting,value
CCCCN(CCCC)c1ccc2c(-c3cccc(CN4CCOCC4)c3)c3ccc(=N)cc-3oc2c1 [CDy1],number of colonies from SSChigh CDy1dim cells,mESC; [1],6
same,number of colonies from SSClow CDy1bright cells,mESC; [1],604
same,Nanog expression in SSClow CDy1bright cells versus SSChigh CDy1dim cells,mESC; RT-PCR,much higher
same,staining of hESC,human ESC (hESC) (BG01V),stained both
